Experimental data taken from patent US11247965B2 (VenatoRx Pharmaceuticals, Inc., priority 2017, dated 2022).
pEC50: −log10 of the molar value.

Legend:
[1] = system: HBV replication in HepAD38 cells; assay: Anti-HBV activity in HepAD38 cells, extracellular HBV DNA by QPCR; format: cell-based, HBV (genotype D, serotype ayw); conditions: Hepatitis B virus, HePAD38, 168 h, read-out: Anti-HBV EC50, HepAD38 cells, extracellular HBV DNA by QPCR, 7 days of incubation
Summary of the method: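 Seven-day compound exposure (30 μM down to 10 nM, half-log steps) after tetracycline withdrawal induced HBV replication in HepAD38 cells. Extracellular viral DNA measured by QPCR (copies/mL via standard curve), normalised to DMSO wells; EC50 from 4-parameter non-linear regression.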

[2] = In vitro cytotoxicity, MTT cell viability assay in HepG2 cells; format: cell-based; conditions: human, Cytotoxicity CC50
Summary of the method: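 CC50 values reflect loss of HepG2 viability after a 7-day exposure at 37 °C, 5% CO2. After 3-4 h with MTT, solubilized formazan was quantified at 492 nm relative to vehicle wells.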

SMILES | pEC50 [1] | CC50 at 7 days [2] [µM]
Cc1cc(NC(=O)c2ccc(F)c(C(F)(F)C(=O)N3[C@@H]4CCC[C@H]3CC(=O)C4)c2)ccc1F [Example 200, 3-(1,1-difluoro-2-oxo-2-((1R,5S)-3-oxo-9-azabicyclo[3.3.1]nonan-9-yl)ethyl)-4-fluoro-N-(4-fluoro-3-methylphenyl)benzamide] | > 5.30 | 5 to 30
Cc1cc(NC(=O)c2ccc(F)c(C(F)(F)C(=O)N3CCOC[C@H]3C(=O)O)c2)ccc1F [Example 237, (S)-4-(2,2-difluoro-2-(2-fluoro-5-((4-fluoro-3-methylphenyl)carbamoyl)phenyl)acetyl)morpholine-3-carboxylic acid] | 4.52 to 5.30 | > 30
Cc1cc(NC(=O)c2ccc(F)c(C(F)(F)C(=O)N3[C@@H]4CC[C@H]3C[C@@H](N)C4)c2)ccc1F [Example 226, 3-(2-((1R,3r,5S)-3-amino-8-azabicyclo[3.2.1]octan-8-yl)-1,1-difluoro-2-oxoethyl)-4-fluoro-N-(4-fluoro-3-methylphenyl)benzamide] | > 5.30 | 5 to 30
Cc1cc(NC(=O)c2ccc(F)c(C(F)(F)C(=O)N3CCC(N)C(C)(C)C3)c2)ccc1F (stereo not drawn) [Example 285, 3-(2-(4-amino-3,3-dimethylpiperidin-1-yl)-1,1-difluoro-2-oxoethyl)-4-fluoro-N-(4-fluoro-3-methylphenyl)benzamide] | > 5.30 | 5 to 30
Cn1cc(C(=O)Nc2ccc(F)c(Cl)c2)cc1C(F)(F)C(=O)NOC(C)(C)C [Example 144, 5-(2-(tert-butoxyamino)-1,1-difluoro-2-oxoethyl)-N-(3-chloro-4-fluorophenyl)-1-methyl-1H-pyrrole-3-carboxamide] | > 5.30 | > 30
Cc1cc(NC(=O)c2ccc(F)c(C(F)(F)C(=O)N3[C@@H]4COC[C@H]3CN(C(=O)N3CCS(=O)(=O)CC3)C4)c2)ccc1F [Example 210, 3-(2-((1R,5S)-7-(1,1-dioxidothiomorpholine-4-carbonyl)-3-oxa-7,9-diazabicyclo[3.3.1]nonan-9-yl)-1,1-difluoro-2-oxoethyl)-4-fluoro-N-(4-fluoro-3-methylphenyl)benzamide] | > 5.30 | > 30
Cc1cc(NC(=O)c2ccc(F)c(C(F)(F)C(=O)N3CCc4[nH]nnc4C3)c2)ccc1F [Example 270, 3-(1,1-difluoro-2-oxo-2-(1,4,6,7-tetrahydro-5H-[1,2,3]-triazolo[4,5-c]pyridin-5-yl)ethyl)-4-fluoro-N-(4-fluoro-3-methylphenyl)benzamide] | > 5.30 | 5 to 30
Cc1cc(NC(=O)c2ccc(F)c(C(F)(F)C(=O)N3[C@@H]4CCC[C@H]3C[C@@H](O)C4)c2)ccc1F [Example 216, 3-(1,1-difluoro-2-((1R,3r,5S)-3-hydroxy-9-azabicyclo[3.3.1]nonan-9-yl)-2-oxoethyl)-4-fluoro-N-(4-fluoro-3-methylphenyl)benzamide] | > 5.30 | 5 to 30
CCC(C)(C)NC(=O)C(F)(F)c1cc(C(=O)Nc2ccc(F)c(F)c2)ccc1F [Example 19, 3-(1,1-difluoro-2-oxo-2-(tert-pentylamino)ethyl)-N-(3,4-difluorophenyl)-4-fluorobenzamide] | > 5.30 | 5 to 30
O=C(Nc1ccc(F)c(F)c1)c1ccc(F)c(C(F)(F)C(=O)NC2CCC(O)CC2)c1 (stereo not drawn) [Example 26, 3-(1,1-difluoro-2-(((1r,4r)-4-hydroxycyclohexyl)amino)-2-oxoethyl)-N-(3,4-difluorophenyl)-4-fluorobenzamide] | > 5.30 | 5 to 30
Cc1cc(NC(=O)c2ccc(F)c(C(F)(F)C(=O)N3CCC(B(O)O)CC3)c2)ccc1F [Example 152, (1-(2,2-difluoro-2-(2-fluoro-5-((4-fluoro-3-methylphenyl)carbamoyl)phenyl)acetyl)piperidin-4-yl)boronic acid] | > 5.30 | 5 to 30
Cn1cc(C(=O)Nc2ccc(F)c(Cl)c2)cc1C(F)(F)C(=O)N[C@@H]1CCOC1 [Example 142, (R)-N-(3-chloro-4-fluorophenyl)-5-(1,1-difluoro-2-oxo-2-((tetrahydrofuran-3-yl)amino)ethyl)-1-methyl-1H-pyrrole-3-carboxamide] | > 5.30 | > 30
O=C(Nc1ccnc(Cl)c1)c1ccc(F)c(C(F)(F)C(=O)N2[C@@H]3CC[C@H]2C[C@@H](O)C3)c1 [Example 196, N-(2-chloropyridin-4-yl)-3-(1,1-difluoro-2-((1R,3r,5S)-3-hydroxy-8-azabicyclo[3.2.1]octan-8-yl)-2-oxoethyl)-4-fluorobenzamide] | > 5.30 | < 5
Cc1cc(NC(=O)c2ccc(F)c(C(F)(F)C(=O)N3CCC(C(N)=O)CC3)c2)ccc1F [Example 164, 1-(2,2-difluoro-2-(2-fluoro-5-((4-fluoro-3-methylphenyl)carbamoyl)phenyl)acetyl)piperidine-4-carboxamide] | > 5.30 | > 30
CCN(CCCO)C(=O)C(F)(F)c1cc(C(=O)Nc2ccc(F)c(F)c2)ccc1F [Example 46, N-(3,4-difluorophenyl)-3-(2-(ethyl(3-hydroxypropyl)amino)-1,1-difluoro-2-oxoethyl)-4-fluorobenzamide] | 4.52 to 5.30 | > 30
Cc1cc(NC(=O)c2ccc(F)c(C(F)(F)C(=O)N3[C@@H]4CCC[C@H]3C[C@H](N)C4)c2)ccc1F [Example 337, 3-(2-((1R,3s,5S)-3-amino-9-azabicyclo[3.3.1]nonan-9-yl)-1,1-difluoro-2-oxoethyl)-4-fluoro-N-(4-fluoro-3-methylphenyl)benzamide] | > 5.30 | 5 to 30
O=C(Nc1ccc(F)c(Br)c1)c1ccc(F)c(C(F)(F)C(=O)N2CCC(O)C(F)(F)C2)c1 (stereo not drawn) [Example 175, N-(3-bromo-4-fluorophenyl)-3-(2-(3,3-difluoro-4-hydroxypiperidin-1-yl)-1,1-difluoro-2-oxoethyl)-4-fluorobenzamide] | > 5.30 | 5 to 30
CN(CCCO)C(=O)C(F)(F)c1cc(C(=O)Nc2ccc(F)c(F)c2)ccc1F [Example 47, 3-(1,1-difluoro-2-((3-hydroxypropyl)(methyl)amino)-2-oxoethyl)-N-(3,4-difluorophenyl)-4-fluorobenzamide] | 4.52 to 5.30 | > 30
O=C(Nc1cc(F)c(F)c(F)c1)c1ccc(F)c(C(F)(F)C(=O)N2[C@@H]3CC[C@H]2C[C@@H](O)C3)c1 [Example 173] | > 5.30 | 5 to 30
Cc1cc(NC(=O)c2cc(C(F)(F)C(=O)N3CCC(B(O)O)CC3)n(C)c2)ccc1F [Example 122, (1-(2,2-difluoro-2-(4-((4-fluoro-3-methylphenyl)carbamoyl)-1-methyl-1H-pyrrol-2-yl)acetyl)piperidin-4-yl)boronic acid] | 4.52 to 5.30 | > 30
O=C(Nc1ccc(F)c(Cl)c1)c1ccc(F)c(C(F)(F)C(=O)N2[C@@H]3CC[C@H]2C[C@H](O)C3)c1 [Example 171, N-(3-chloro-4-fluorophenyl)-3-(1,1-difluoro-2-((1R,3s,5S)-3-hydroxy-8-azabicyclo[3.2.1]octan-8-yl)-2-oxoethyl)-4-fluorobenzamide] | > 5.30 | 5 to 30
